Measured values from patent US5731309A, “Substituted heteroalkyleneamine neurokinin antagonists” (Zeneca Limited, priority 1994, dated 1998).
pKi: −log10 of the molar value.

How the values were obtained:
human NK2 receptor = biological target: T1, human NK2 receptor (Homo sapiens, UniProt P21452); test: Neurokinin A (NKA) Receptor Binding Assay (Test B); details: antagonism of NKA binding; human NK2 receptor expressed in MEL cells
T1 construct: expressed in transfected cells; host or cells: Mouse Erythroleukemia (MEL) cells
T1 sequence (P21452 1-398): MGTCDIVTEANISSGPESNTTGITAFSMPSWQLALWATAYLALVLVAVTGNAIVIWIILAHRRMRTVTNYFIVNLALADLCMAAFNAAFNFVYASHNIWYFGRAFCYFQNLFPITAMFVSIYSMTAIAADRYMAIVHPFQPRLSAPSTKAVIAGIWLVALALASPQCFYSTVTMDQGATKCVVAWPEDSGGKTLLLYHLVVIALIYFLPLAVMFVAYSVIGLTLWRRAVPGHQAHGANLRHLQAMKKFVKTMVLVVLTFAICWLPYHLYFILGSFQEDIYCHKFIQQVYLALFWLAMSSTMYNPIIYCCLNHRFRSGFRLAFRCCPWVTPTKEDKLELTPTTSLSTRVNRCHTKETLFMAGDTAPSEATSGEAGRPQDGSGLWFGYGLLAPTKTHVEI
Source text: Neurokinin A (NKA) Receptor Binding Assay (Test B)

human NK1 receptor = biological target: T2, human NK1 receptor (Homo sapiens, UniProt P25103); test: SP Receptor Binding Assay (Test A); details: antagonism of SP binding; human NK1 receptor expressed in MEL cells
T2 construct: expressed in transfected cells; host or cells: Mouse Erythroleukemia (MEL) cells
T2 sequence (P25103 whole entry): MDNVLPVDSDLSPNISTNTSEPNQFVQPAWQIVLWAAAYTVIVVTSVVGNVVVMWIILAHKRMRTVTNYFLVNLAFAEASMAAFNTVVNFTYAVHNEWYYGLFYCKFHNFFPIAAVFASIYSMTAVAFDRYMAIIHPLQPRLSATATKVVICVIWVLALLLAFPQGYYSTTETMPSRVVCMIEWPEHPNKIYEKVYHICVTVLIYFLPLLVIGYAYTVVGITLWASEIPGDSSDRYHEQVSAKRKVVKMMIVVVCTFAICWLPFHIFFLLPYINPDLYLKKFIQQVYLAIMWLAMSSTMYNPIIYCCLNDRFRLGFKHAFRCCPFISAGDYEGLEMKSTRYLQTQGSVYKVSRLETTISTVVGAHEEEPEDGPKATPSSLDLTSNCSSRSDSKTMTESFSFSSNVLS
Source text: SP Receptor Binding Assay (Test A)
The human NK1 receptor was isolated and characterized as described in: B. Hopkins, et al. "Isolation and characterization of the human lung NK1 receptor cDNA" Biochem. Biophys. Res. Comm., 1991, 180, 1110-1117; and the NK1 receptor was expressed in Mouse Erythroleukemia (MEL) cells using a procedure similar to that described in Test B below.

NK1 receptor = biological target: T3, NK1 receptor (Oryctolagus cuniculus, UniProt G1SEI7); test: Rabbit Pulmonary Artery: NK1 in vitro functional assay (Test C); set-up: species or system rabbit (male New Zealand white); details: -log molar KB, agonist ASMSP, read-out: pKB in Test C (converted)
T3 construct: The left and right branches of the pulmonary artery are isolated from the rest of the lung tissue; from tissue; host or cells: rabbit (male New Zealand white) pulmonary artery ring segments with intact endothelium
T3 sequence (G1SEI7 1-407): as the sequence (P25103 whole entry) above, with S12F, N189D, P369A, D371E, T376N, C386G, D391N, S402Y, V405M counted along it
Description: Rabbit Pulmonary Artery: NK1 in vitro functional assay (Test C)
Male New Zealand white rabbits are killed by lethal injection (Nembutal, 60 mg/kg into a cannulated ear vein). Heparin, 0.0025 ml/kg of a 1000 U/ml solution, is injected into the ear vein prior to nembutal in order to decrease blood coagulation. The left and right branches of the pulmonary artery are isolated from the rest of the lung tissue and cut in half to provide four ring segments from each animal. […] Changes in tension are measured on a Grass polygraph via Grass FT-03 force transducers. […]
Potencies of the compounds are determined by calculating the apparent dissociation constants (KB) for each concentration tested using the standard equation: […]
where dose ratio=antilog[(agonist-log molar EC50 without compound)-(agonist-log molar EC50 with compound)]. The KB values are converted to the negative logarithms and expressed as -log molar KB (i.e. pKB). […] The EC50 values are converted to negative logarithms and expressed as -log molar EC50. Maximum relaxation responses to ASMSP are determined by expressing the maximum response to the agonist as a percentage of the relaxation caused by papaverine.

NK2 receptor = biological target: T4, NK2 receptor (Cavia porcellus, UniProt Q64077); test: Guinea Pig Trachea Assay: NK2 in vitro functional assay (Test D); details: -log molar KB, agonist BANK, read-out: pKB in Test D (converted)
T4 construct: The trachea are removed, trimmed of excess tissue (including removal of epithelium) and cut in spiral fashion; from tissue; host or cells: guinea pig trachea strips, epithelium removed
T4 sequence (Q64077 1-402): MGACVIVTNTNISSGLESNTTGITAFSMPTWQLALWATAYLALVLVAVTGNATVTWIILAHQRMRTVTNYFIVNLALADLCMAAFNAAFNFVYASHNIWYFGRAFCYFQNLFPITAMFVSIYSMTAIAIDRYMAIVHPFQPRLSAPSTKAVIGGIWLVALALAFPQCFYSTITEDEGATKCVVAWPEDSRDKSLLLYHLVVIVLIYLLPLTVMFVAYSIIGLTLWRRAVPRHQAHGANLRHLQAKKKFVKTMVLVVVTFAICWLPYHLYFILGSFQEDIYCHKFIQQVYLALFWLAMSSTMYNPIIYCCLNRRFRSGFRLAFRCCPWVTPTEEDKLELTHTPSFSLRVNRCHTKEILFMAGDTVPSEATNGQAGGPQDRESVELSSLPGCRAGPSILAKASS
Description: Guinea Pig Trachea Assay: NK2 in vitro functional assay (Test D)
Male guinea pigs are killed by a sharp blow to the back of the head followed by exsanguination. The trachea are removed, trimmed of excess tissue (including removal of epithelium) and cut in spiral fashion. Each longitudinally cut tracheal segment is suspended as a strip in a water-jacketed (37.5° C.) tissue bath containing a physiological salt solution of the following composition (mM): NaCl, 119; KCl 4.6; CaCl2, 1.8; MgCl2, 0.5; NaH2 PO4, 1; NaHCO3, 25; glucose, 11; and indomethacin, 0.005 (to inhibit cyclooxygenase); gassed continuously with 95% O2-%5 CO2. […] Contractile responses are measured on a Grass polygraph via Grass FT-03 force transducers. […]
Potencies of the compounds are evaluated by calculating apparent dissociation constants (KB) for each concentration tested using the standard equation: […]
where dose ratio=antilog[(agonist -log molar EC50 without compound)-(agonist-log molar EC50 with compound)]. The KB values are converted to the negative logarithms and expressed as -log molar KB (i.e. pKB). […] The EC50 values are converted to the negative logarithms and expressed as -log molar EC50. Maximum contractile responses to BANK are determined by expressing the maximum response to BANK as a percentage of the initial contraction caused by capasacin.

SMILES | pKi (human NK2 receptor) | pKi (human NK1 receptor) | Kb (NK1 receptor) | Kb (NK2 receptor)
CC(=O)NC1(c2ccccc2)CCN(CCC(CNCCc2ccccc2)c2ccc(Cl)c(Cl)c2)CC1 (stereo not shown) [Example 3, 4-(4-acetamido-4-phenylpiperidino)-2-(3,4-dichlorophenyl)-N-(phenethyl)butylamine] | 7.89 | 6.37 |  | 
CC(=O)NC1(c2ccccc2)CCN(CCC(CN(Cc2cc(C(F)(F)F)cc(C(F)(F)F)c2)C(C)=O)c2ccc(Cl)c(Cl)c2)CC1 (stereo not shown) [Example 10, 4-(4-Acetamido-4-phenylpiperidino)-N-acetyl-2-(3,4-dichlorophenyl)-N-[3,5-bis(trifluoromethyl)benzyl]butylamine] |  |  | 955 nM | 3160 nM
